Where “and” joins values, the source holds several entries; their conditions need not be identical. Identical values can stand only once.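 Results reflect a 48-hour exposure of cells in 96-well plates to compound at five concentrations. GI50 is the concentration that inhibits growth by half. TGI: total growth inhibition.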
Assays:
Experiment in all cases: NCI tumour cell line growth inhibition, 48 h
UACC-62 melanoma = test system: UACC-62 melanoma
HS 578T breast = test system: HS 578T breast
NCI-H460 lung = test system: NCI-H460 lung
MOLT-4 leukemia = test system: MOLT-4 leukemia
RPMI-8226 leukemia = test system: RPMI-8226 leukemia
IGROV1 ovarian = test system: IGROV1 ovarian
SK-MEL-5 melanoma = test system: SK-MEL-5 melanoma
RXF 393 renal = test system: RXF 393 renal
SW-620 colon = test system: SW-620 colon
OVCAR-8 ovarian = test system: OVCAR-8 ovarian

Cc1cc(O)c(C(C)C)cc1S(=O)(=O)O (tested in a mixture with another compound)
GI50 (UACC-62 melanoma): 0.566 µM | GI50 (HS 578T breast): 0.281 µM | TGI (HS 578T breast): 1.92 µM | GI50 (NCI-H460 lung): 0.347 µM | GI50 (MOLT-4 leukemia): 0.401 µM | GI50 (RPMI-8226 leukemia): 0.357 µM | GI50 (IGROV1 ovarian): 0.554 µM | GI50 (SK-MEL-5 melanoma): 0.394 µM | TGI (SK-MEL-5 melanoma): 1.44 µM | GI50 (RXF 393 renal): 0.213 µM | GI50 (SW-620 colon): 0.404 µM | GI50 (OVCAR-8 ovarian): 0.335 µM

COc1cc(C[C@H]2c3cc(OC)c(OC)cc3CCN2C)c(Oc2cc3c(cc2OC)-c2c(OC)c(OC)cc4c2[C@H](C3)N(C)CC4)cc1OC
GI50 (UACC-62 melanoma): 19 µM | TGI (UACC-62 melanoma): 13.4 µM and 34.2 µM | TGI (HS 578T breast): 13.1 µM | GI50 (NCI-H460 lung): 14.1 µM | TGI (NCI-H460 lung): 20.1 µM and 27.5 µM | GI50 (MOLT-4 leukemia): 4.06 µM | TGI (MOLT-4 leukemia): 20.4 µM and 12.2 µM | GI50 (RPMI-8226 leukemia): 3.22 µM | TGI (RPMI-8226 leukemia): 25.5 µM and 15.4 µM | GI50 (IGROV1 ovarian): 14.2 µM | TGI (IGROV1 ovarian): 32.6 µM and 28.3 µM | GI50 (SK-MEL-5 melanoma): 1.97 µM | TGI (SK-MEL-5 melanoma): 11.1 µM and 3.58 µM | GI50 (RXF 393 renal): 8.62 µM | TGI (RXF 393 renal): 7.35 µM and 21.3 µM | GI50 (SW-620 colon): 13.3 µM | TGI (SW-620 colon): 22.6 µM and 32.5 µM | GI50 (OVCAR-8 ovarian): 17 µM | TGI (OVCAR-8 ovarian): 18.5 µM and 35 µM

COc1ccc(C2=CC(c3ccc4c(c3)OCO4)c3c(c4ccccc4oc3=O)O2)cc1OC (stereo unspecified)
TGI (UACC-62 melanoma): > 100 µM | TGI (HS 578T breast): > 25.6 µM | TGI (NCI-H460 lung): > 100 µM | TGI (MOLT-4 leukemia): > 100 µM | TGI (RPMI-8226 leukemia): > 65.3 µM | TGI (IGROV1 ovarian): > 100 µM | TGI (SK-MEL-5 melanoma): > 100 µM | TGI (RXF 393 renal): > 100 µM | TGI (SW-620 colon): > 100 µM | TGI (OVCAR-8 ovarian): > 100 µM

Cc1c(C(N)=O)sc2c1C(=O)N(Cc1ccccc1)C1=NN=C(c3ccc(Cl)cc3)CN12
GI50 (UACC-62 melanoma): 2.23 µM | TGI (UACC-62 melanoma): 5.9 µM | GI50 (HS 578T breast): 5.88 µM | TGI (HS 578T breast): 34.2 µM | GI50 (NCI-H460 lung): 2.13 µM | TGI (NCI-H460 lung): 7.69 µM | GI50 (MOLT-4 leukemia): 2.36 µM | TGI (MOLT-4 leukemia): 40.1 µM | GI50 (RPMI-8226 leukemia): 4.56 µM | TGI (RPMI-8226 leukemia): > 100 µM | GI50 (IGROV1 ovarian): 3.13 µM | TGI (IGROV1 ovarian): 22.3 µM | GI50 (SK-MEL-5 melanoma): 1.84 µM | TGI (SK-MEL-5 melanoma): 4.76 µM | GI50 (RXF 393 renal): 2.16 µM | TGI (RXF 393 renal): 7.71 µM | GI50 (SW-620 colon): 3.99 µM | TGI (SW-620 colon): 18.4 µM | GI50 (OVCAR-8 ovarian): 2.97 µM | TGI (OVCAR-8 ovarian): 15.2 µM

CCN(CC)CCCC(C)Nc1ccnc2cc(Oc3ccccc3)ccc12 (stereo unspecified)
GI50 (UACC-62 melanoma): 4.16 µM and 3.24 µM | TGI (UACC-62 melanoma): 11.2 µM and 12.3 µM | GI50 (HS 578T breast): 5.5 µM and 16.7 µM | TGI (HS 578T breast): 24.3 µM and 56.5 µM | GI50 (NCI-H460 lung): 9.21 µM and 12.6 µM | TGI (NCI-H460 lung): 25.9 µM and 78.7 µM | GI50 (MOLT-4 leukemia): 4.32 µM and 9.05 µM | TGI (MOLT-4 leukemia): 17.8 µM and 82.8 µM | GI50 (RPMI-8226 leukemia): 5.02 µM and 5.36 µM | TGI (RPMI-8226 leukemia): 13.9 µM and 28.2 µM | GI50 (IGROV1 ovarian): 3.55 µM and 14.1 µM | TGI (IGROV1 ovarian): 16.9 µM and > 100 µM | GI50 (SK-MEL-5 melanoma): 1.69 µM and 1.8 µM | TGI (SK-MEL-5 melanoma): 3.22 µM and 3.37 µM | GI50 (RXF 393 renal): 1.65 µM and 3.53 µM | TGI (RXF 393 renal): 5.82 µM and 11.2 µM | GI50 (SW-620 colon): 3.36 µM and 5.53 µM | TGI (SW-620 colon): 14.3 µM and 25.9 µM | GI50 (OVCAR-8 ovarian): 3.62 µM and 9.15 µM | TGI (OVCAR-8 ovarian): 14.6 µM and 38.5 µM

Cc1ccc(Nc2n[nH]c(=S)s2)cc1C
TGI (UACC-62 melanoma): > 100 µM | TGI (HS 578T breast): > 100 µM | TGI (NCI-H460 lung): > 100 µM | TGI (MOLT-4 leukemia): > 100 µM | TGI (RPMI-8226 leukemia): > 100 µM | TGI (IGROV1 ovarian): > 100 µM | TGI (SK-MEL-5 melanoma): > 100 µM | TGI (RXF 393 renal): > 100 µM | TGI (SW-620 colon): > 100 µM | TGI (OVCAR-8 ovarian): > 100 µM

C#Cc1c(F)ccc2cc(O)cc(-c3ncc4c(N5CC6CCC(C5)N6)nc(OC[C@@]56CCCN5C[C@H](F)C6)nc4c3F)c12
GI50 (UACC-62 melanoma): 16.6 µM | TGI (UACC-62 melanoma): 30.5 µM | GI50 (HS 578T breast): 8.47 µM | TGI (HS 578T breast): 28.2 µM | GI50 (NCI-H460 lung): 6.87 µM | TGI (NCI-H460 lung): 21.2 µM | GI50 (MOLT-4 leukemia): 8.72 µM | TGI (MOLT-4 leukemia): 28.4 µM | GI50 (RPMI-8226 leukemia): 5.1 µM | TGI (RPMI-8226 leukemia): 29.9 µM | GI50 (IGROV1 ovarian): 13.9 µM | TGI (IGROV1 ovarian): 29.9 µM | GI50 (SK-MEL-5 melanoma): 14.9 µM | TGI (SK-MEL-5 melanoma): 28.2 µM | GI50 (RXF 393 renal): 13.5 µM | TGI (RXF 393 renal): 27.5 µM | GI50 (SW-620 colon): 1.32 µM | TGI (SW-620 colon): 10.3 µM | GI50 (OVCAR-8 ovarian): 17.3 µM | TGI (OVCAR-8 ovarian): 36.4 µM

COc1ccc2c(c1)c(=O)oc1cc(OC/C(C)=N\O)ccc12
GI50 (UACC-62 melanoma): 75.5 µM | TGI (UACC-62 melanoma): > 100 µM | GI50 (HS 578T breast): 27.6 µM | TGI (HS 578T breast): > 100 µM | GI50 (NCI-H460 lung): > 100 µM | TGI (NCI-H460 lung): > 100 µM | GI50 (MOLT-4 leukemia): > 100 µM | TGI (MOLT-4 leukemia): > 100 µM | GI50 (RPMI-8226 leukemia): > 100 µM | TGI (RPMI-8226 leukemia): > 100 µM | GI50 (IGROV1 ovarian): > 100 µM | TGI (IGROV1 ovarian): > 100 µM | GI50 (SK-MEL-5 melanoma): > 100 µM | TGI (SK-MEL-5 melanoma): > 100 µM | GI50 (RXF 393 renal): 56.6 µM | TGI (RXF 393 renal): > 100 µM | GI50 (SW-620 colon): > 100 µM | TGI (SW-620 colon): > 100 µM | GI50 (OVCAR-8 ovarian): > 100 µM | TGI (OVCAR-8 ovarian): > 100 µM

Cc1cc2c(cc1C)N(C(=O)CCl)CC(=O)N2
GI50 (UACC-62 melanoma): 3.54 µM | TGI (UACC-62 melanoma): 12.7 µM | GI50 (HS 578T breast): 4.08 µM | TGI (HS 578T breast): 68.8 µM | GI50 (NCI-H460 lung): 3.66 µM | TGI (NCI-H460 lung): 14.4 µM | GI50 (MOLT-4 leukemia): 2.41 µM | TGI (MOLT-4 leukemia): 7.01 µM | GI50 (RPMI-8226 leukemia): 2.35 µM | TGI (RPMI-8226 leukemia): 7.15 µM | GI50 (IGROV1 ovarian): 2.22 µM | TGI (IGROV1 ovarian): 4.45 µM | GI50 (SK-MEL-5 melanoma): 3.48 µM | TGI (SK-MEL-5 melanoma): 13.6 µM | GI50 (RXF 393 renal): 2.46 µM | TGI (RXF 393 renal): 5.68 µM | GI50 (SW-620 colon): 2.19 µM | TGI (SW-620 colon): 5.05 µM | GI50 (OVCAR-8 ovarian): 3.01 µM | TGI (OVCAR-8 ovarian): 10.8 µM

C=C(C)C(=O)O[C@H]1CC(=C)[C@@H]2C[C@H](O)[C@](O)(CCl)[C@@H]2[C@H]2OC(=O)C(=C)[C@@H]21
GI50 (UACC-62 melanoma): 3.26 µM | TGI (UACC-62 melanoma): 11.4 µM | GI50 (HS 578T breast): 11.6 µM | TGI (HS 578T breast): 46.1 µM | GI50 (NCI-H460 lung): 10.2 µM | TGI (NCI-H460 lung): 28.2 µM | GI50 (MOLT-4 leukemia): 1.44 µM | TGI (MOLT-4 leukemia): 3.84 µM | GI50 (RPMI-8226 leukemia): 1.43 µM | TGI (RPMI-8226 leukemia): 4.78 µM | GI50 (IGROV1 ovarian): 2.71 µM | TGI (IGROV1 ovarian): 10.4 µM | GI50 (SK-MEL-5 melanoma): 8.66 µM | TGI (SK-MEL-5 melanoma): 23.4 µM | GI50 (RXF 393 renal): 1.95 µM | TGI (RXF 393 renal): 3.98 µM | GI50 (SW-620 colon): 2.08 µM | TGI (SW-620 colon): 4.57 µM | GI50 (OVCAR-8 ovarian): 3.24 µM | TGI (OVCAR-8 ovarian): 12.8 µM

COc1cc(OC(=O)c2ccccc2)cc2c1C(=O)C=CC2=O
TGI (UACC-62 melanoma): 28.5 µM | TGI (HS 578T breast): 69.3 µM | TGI (NCI-H460 lung): 60.9 µM | TGI (MOLT-4 leukemia): 14.6 µM | TGI (RPMI-8226 leukemia): 29.7 µM | TGI (IGROV1 ovarian): 29 µM | TGI (SK-MEL-5 melanoma): 30.6 µM | TGI (RXF 393 renal): 24.6 µM | TGI (SW-620 colon): 39.2 µM | TGI (OVCAR-8 ovarian): 63.3 µM
